Each structure is given as a SMILES string. Some results are limits rather than exact numbers.

Common to all, as to type: cell-based
One test concerns NCI-H460. As to the kind of experiment: tumor cell line panel, SRB growth assay. The note with it: Homo sapiens; NCI-H460, Non-Small Cell Lung, 48 hours. The method, then:
(§1) The compound of example 5 was also evaluated against a panel of cancer cell lines (Alley, M.C. et al. […] Cancer Research 48: 589-601; Grever, M. R., et al. (1992) Seminars in Oncology, Vol. 19, No. 6, pp 622-638; Boyd, M. R., and Paull, K. D. (1995) Drug Development Research 34: 91-109). The human tumor cell lines of the cancer screening panel were grown in RPMI 1640 medium containing 5% fetal bovine serum and 2 mM L-glutamine. Cells were inoculated into 96 well microtiter plates in 100 μL at plating densities ranging from 5,000 to 40,000 cells/well depending on the doubling time of individual cell lines. After cell inoculation, the microtiter plates were incubated at 37° C., 5 % CO2, 95 % air and 100 % relative humidity for 24 hours prior to addition of experimental drugs.
(§2) After the 24 hour incubation period, two plates of each cell line were fixed in situ with TCA, to represent a measurement of the cell population for each cell line at the time of drug addition (Tz). Experimental drugs were solubilized in dimethyl sulfoxide at 400-fold the desired final maximum test concentration and stored frozen prior to use. At the time of drug addition, an aliquot of frozen concentrate was thawed and diluted to twice the desired final maximum test concentration with complete medium containing 50 μg/ml gentamicin. Additional four, 10-fold or ½ log serial dilutions were made to provide a total of five drug concentrations plus control. Aliquots of 100 μl of these different drug dilutions were added to the appropriate microtiter wells already containing 100 μl of medium, resulting in the required final drug concentrations.
(§3) Following drug addition, the plates were incubated for an additional 48 hours at 37° C., 5 % CO2, 95 % air, and 100 % relative humidity. For adherent cells, the assay was terminated by the addition of cold TCA. Cells were fixed in situ by the gentle addition of 50 μl of cold 50 % (w/v) TCA (final concentration, 10% TCA) and incubated for 60 minutes at 4° C. The supernatant was discarded, and the plates were washed five times with tap water and air dried. Sulforhodamine B (SRB) solution (100 μl) at 0.4 % (w/v) in 1 % acetic acid were added to each well, and plates were incubated for 10 minutes at room temperature. After staining, unbound dye was removed by washing five times with 1 % acetic acid and the plates were air dried. Bound stain was subsequently solubilized with 10 mM trizma base, and the absorbance was read on an automated plate reader at a wavelength of 515 nm. For suspension of the cells, the methodology used was the same except that the assay was terminated by fixing settled cells at the bottom of the wells by gently adding 50 μl of 80 % TCA (final concentration, 16% TCA). Using the seven absorbance measurements [time zero, (Tz), control growth, (C), and test growth in the presence of drug at the five concentration levels (Ti)], the percentage growth was calculated at each of the drug concentrations levels.
(§4) Percentage growth inhibition was calculated as: [(Ti−Tz)/(C−Tz)]×100 for concentrations for which Ti>/=Tz [(Ti−Tz)/Tz]×100 for concentrations for which Ti<Tz.
(§5) Growth inhibition of 50% (GI50) was calculated from [(Ti−Tz)/(C−Tz)]×100=50, which is the drug concentration resulting in a 50% reduction in the net protein increase (as measured by SRB staining) in control cells during the drug incubation. The G150 was calculated for each of the cell lines if the level of activity is reached; however, if the effect was not reached or is exceeded, the value for that parameter is expressed as greater or less than the maximum (10^−4 M) or minimum (10^−8 M) concentration tested.
Background: In SRB staining, fixed cells bind dye roughly in proportion to their protein.

The subject of another test is SW-620. As to the kind of experiment: tumor cell line panel, SRB growth assay. The note with it: Homo sapiens; SW-620, Colon, 48 hours. The method, then:
as §1, §2, §3, §4, §5

Another test deals with MDA-N. The experiment in a line: tumor cell line panel, SRB growth assay. The note with it: Homo sapiens, Breast, 48 hours. The method, then: as §1, §2, §3, §4, §5
The next test deals with NCI-H23. The experiment in a line: tumor cell line panel, SRB growth assay. The note with it: Homo sapiens; NCI-H23, Non-Small Cell Lung, 48 hours. The method, then: as §1, §2, §3, §4, §5
For a further test, the system named is M14. The experiment in a line: tumor cell line panel, SRB growth assay. The note with it: Homo sapiens; M14, Melanoma, 48 hours. The method, then: as §1, §2, §3, §4, §5
The subject of another test is SF-295. As to the kind of experiment: tumor cell line panel, SRB growth assay. The note with it: Homo sapiens; SF-295, CNS, 48 hours. The method, then: as §1, §2, §3, §4, §5
The next test concerns HCT-116. As to the kind of experiment: tumor cell line panel, SRB growth assay. The note with it: Homo sapiens; HCT-116, Colon, 48 hours. The method, then:
as §1, §2, §3, §4, §5

Another test deals with SK-MEL-28. The experiment in a line: tumor cell line panel, SRB growth assay. The note with it: Homo sapiens; SK-MEL-28, Melanoma, 48 hours. The method, then:
as §1, §2, §3, §4, §5

For the next test, the system named is NCI-H226. As to the kind of experiment: tumor cell line panel, SRB growth assay. The note with it: Homo sapiens; NCI-H226, Non-Small Cell Lung, 48 hours. The method, then:
as §1, §2, §3, §4, §5

For a further test, the system named is UACC-257. The experiment in a line: tumor cell line panel, SRB growth assay. The note with it: Homo sapiens; UACC-257, Melanoma, 48 hours. The method, then:
as §1, §2, §3, §4, §5

The test system of another test is TK-10. As to the kind of experiment: tumor cell line panel, SRB growth assay. The note with it: Homo sapiens; TK-10, Renal, 48 hours. The method, then: as §1, §2, §3, §4, §5
For a further test, the system named is SK-OV-3. As to the kind of experiment: tumor cell line panel, SRB growth assay. The note with it: Homo sapiens; SK-OV-3, Ovarian, 48 hours. The method, then: as §1, §2, §3, §4, §5
The next test deals with MOLT-4. The experiment in a line: tumor cell line panel, SRB growth assay. The note with it: Homo sapiens; MOLT-4, Leukemia, 48 hours. The method, then: as §1, §2, §3, §4, §5
The test system of a further test is SF-539. As to the kind of experiment: tumor cell line panel, SRB growth assay. The note with it: Homo sapiens; SF-539, CNS, 48 hours. The method, then:
as §1, §2, §3, §4, §5

A further test concerns PC-3. As to the kind of experiment: tumor cell line panel, SRB growth assay. The note with it: Homo sapiens; PC-3, Prostate, 48 hours. The method, then: as §1, §2, §3, §4, §5
Another test concerns HL-60(TB). As to the kind of experiment: tumor cell line panel, SRB growth assay. The note with it: Homo sapiens, Leukemia, 48 hours. The method, then:
as §1, §2, §3, §4, §5

A further test has as its system NCI-H322M. The experiment in a line: tumor cell line panel, SRB growth assay. The note with it: Homo sapiens, Non-Small Cell Lung, 48 hours. The method, then:
as §1, §2, §3, §4, §5

A further test deals with SNB-75. As to the kind of experiment: tumor cell line panel, SRB growth assay. The note with it: Homo sapiens; SNB-75, CNS, 48 hours. The method, then: as §1, §2, §3, §4, §5
A further test deals with Ramos. The experiment in a line: Inhibition of GC derived B cell lymphoma lines in culture. The note with it: Burkitt's lymphoma cell line, 0.01-100 nM.
Another test concerns H2. The test is described as above.

The GI50 is the concentration that inhibits growth by half. For the compound `CO[C@@H]1[C@H](OC(=O)N[C@@H](C(N)=O)C(C)C)CC[C@]2(CO2)[C@H]1[C@@]1(C)O[C@@H]1CC=C(C)C` [Example 5, (1-Carbamoyl-2-methyl-propyl)-carbamic acid-(3R, 4S, 5S, 6R )-5-methoxy-4-[(2R, 3R)-2-methyl-3-(3-methyl-but-2-enyl)-oxiranyl]-1-oxa-spiro[2.5]oct-6-yl ester], the GI50 in the test on NCI-H460 was < 0.01 µM; in the test on SW-620 it was > 100 µM; in the test on MDA-N, 1.58 µM; in the test on NCI-H23, 6.34 µM; in the test with M14 it was < 0.01 µM; in the test on SF-295, < 0.01 µM. The GI50 with HCT-116 was < 0.01 µM; in the test on SK-MEL-28 it was 5.96 µM; in the test on NCI-H226, 0.791 µM; in the test on UACC-257, 1.48 µM; in the test on TK-10, 0.0543 µM; with SK-OV-3, 7.37 µM. Further, the GI50 turned out to be 35.6 µM in the test on MOLT-4; 20.6 µM with SF-539; 18 µM in the test with PC-3; 21.7 µM in the test on HL-60(TB); 0.0468 µM in the test on NCI-H322M; 90.9 µM with SNB-75. In the test on H2 (B-cell, read-out: Growth Inhibition Relative to Vehicle Control, GI50%), the GI50 was determined as 0.00016 µM. The “inhibition of proliferation (in words)” value in the test on Ramos was “inhibited the proliferation of all lymphoma lines tested except for the Ramos line”. Also, in the test with H2 (H2, FL, 0.01-100 nM, five or six days), the “Growth Inhibition Relative to Vehicle Control, Maximum Inhibition” value is 59%.
